2 compounds from article PMC4389225, “Triaminopyrimidine is a fast-killing and long-acting antimalarial clinical candidate” (Nature Communications, 2015) can be followed below.

In brackets after ≈: the same amount, converted by molar mass.

Series [1] deals with asexual blood stage of Pf. Briefly: Pf asexual blood stage potency (Pf IC50). Format: cell-based, Plasmodium falciparum. Particulars: for IC50: Plasmodium falciparum. An excerpt:
The TAPs series emerged from a high-throughput screen (HTS) of 500,000 compounds from the AstraZeneca corporate library against the asexual blood stage of Pf using a high-content image-based approach. The procedure for synthesis of compounds 1-6, 10, 11 using a scheme similar to Fig. 1 is provided in Supplementary Note 1. The initial hit provided multiple diversification points for a robust lead optimization campaign. […] Compounds with 2-pyridyl modification at the 2-amino position of pyrimidine core improved potency and solubility at the cost of potent activity against hERG and acetylcholine esterase (AChE; compounds 3-6; Table 1). […] The observed hERG and AChE selectivity improvement with 7 could be attributed to the polar nature of the pyrazole group and its role in reducing the pKa of the core pyrimidine ring. […] To assess the potential for cross-resistance, representative TAPs were screened against a panel of clinical isolates and in vitro-generated mutant strains displaying varying mechanisms of resistance to antimalarial agents currently in use and under development, respectively, (Supplementary Tables 1–3).

The next series addresses T1, hERG (Homo sapiens, UniProt Q12809).
T1 construct: expressed in transfected cells; host or cells: CHO cells
Description: electrophysiology-based hERG assay using IonWorks HT (CHO cells). It counts as cell-based. Particulars: hERG IC50. How it is done:
hERG IC50 was determined in an electrophysiology-based hERG assay using IonWorks HT (CHO cells) as described earlier.
For orientation: Block of hERG is tested as a sign of cardiac risk.

Another series relates to Dd2. Description: [3H]-hypoxanthine incorporation assay, Dd2. Format: cell-based, Plasmodium falciparum. As to conditions: Plasmodium falciparum, DD2. How it is done: 9 and 12 were tested for their antiplasmodial activity against a panel of Pf strains known to harbour mutations conferring resistance to novel agents under clinical development. Parasite growth inhibition is measured using the [3H]-hypoxanthine incorporation assay. IC50s are established for each strain (n ≥2) and compared to the IC50 of Dd2 (standard pan-resistant

In the next series the test system is Pf3D7^0087/N9. Briefly: animal or person. Format: in vivo, Plasmodium falciparum. An excerpt: All animal studies were ethically reviewed and carried out in accordance with European Directive 86/609/EEC and the GSK Policy on the Care, Welfare and Treatment of Animals. During this experiment, female mice were used from the batch NSGJ 01/1 (The Jackson Laboratory, USA). The therapeutic efficacy of compound 12 against Pf3D7^0087/N9 was studied using a ‘4-day test’ reported earlier. Briefly, NODscidIL2Rγ^null mice engrafted with human erythrocytes were infected with 20 × 10^6 Pf-infected erythrocytes. Infections were performed by i.v. inoculation. All mice were randomly assigned to their corresponding treatment. The treatment started at day 3 and finished at day 6 after infection. The compound was administered orally as a suspension in 0.5% w/v hydroxypropyl methylcellulose (HPMC) with 0.1% v/v Tween 80, using an oral gavage at a maximum dose volume of 20 ml kg^−1. Vehicle alone was administered in untreated mice. In all cases, parasitemia was assessed in samples from peripheral blood obtained at days 3–7 after infection. A qualitative analysis of the effect of treatment on Pf3D7^0087/N9 was assessed by microscopy and flow cytometry. Fresh samples of peripheral blood from Pf-infected mice were stained with TER-119-Phycoerythrine (marker of murine erythrocytes) and SYTO-16 (nucleic acid dye) and then analysed by flow cytometry (FACS Calibur, BD). Microscopy analysis was performed with Giemsa-stained blood smears from samples taken at days 5 and 7 (48 and 96 h after starting treatment, respectively).
PK-PD model for the metabolite (compound 9) alone. Pharmacokinetic data from the Pf/SCID model was linked to efficacy using the following equation5.
Where P [log (total no. of parasites / mouse)], Kgro (growth rate constant), Pmax (log (maximum no. of parasites / mouse)), Kkill (maximum kill rate constant), H (Hill slope), EC50 (concentration required for achieving half maximal kill rate) and Ce (concentration of the drug in the effect compartment). Percent parasitemia values were converted into total number of parasites in mouse blood assuming […] (9.23 log10) RBCs per mouse. The lower limit of quantitation for % parasitemia was 0.01% or 5.23 log10. Effect compartment was used for modelling the delay observed in efficacy at a lower dose. […]

The next series deals with Dd2 PfATP4 NITD609. Description: [3H]-hypoxanthine incorporation assay, Dd2 PfATP4 NITD609 resistant. Particulars: Plasmodium falciparum. Format: cell-based. How it is done: (§1) Supplementary Table 3: Compound 9 and 12 retain their activity against Pf strains harbouring mutations to novel antimalarial agents in clinical development. Compound 9 and 12 were tested for their antiplasmodial activity against a panel of Pf strains known to harbour mutations conferring resistance to novel agents under clinical development. Parasite growth inhibition is measured using the [3H]-hypoxanthine incorporation assay. IC50s are established for each strain (n ≥2) and compared to the IC50 of Dd2 (standard pan-resistant […]

For another series, the system named is Dd2 DHODH DSM265. Description: [3H]-hypoxanthine incorporation assay, Dd2 DHODH DSM265 resistant. It counts as cell-based. As to conditions: Plasmodium falciparum. The method, then:
as §1

The nature of series [2]: PK in the blood of infected Pf/SCID mice. It counts as in vivo, mouse. As to conditions: for CL/F: SCID, mouse, whole blood. The method, then: Peripheral blood samples (25 μl) were taken at different times (0.25, 0.5, 1, 2, 4, 6, 8 and 23 h), mixed with 25 μl of H2O Mili-Q and immediately frozen on dry ice. The frozen samples were stored at −80 °C until analysis. Vehicle-treated mice experienced the same blood-sampling regimen. Blood samples were processed by liquid–liquid extraction by mixing 10 μl diluted blood with 180 μl AcN:MeOH (80:20; v-v) mixture. Quantitative analysis by Liquid chromatography-tandem mass spectrometry (LC-MS/MS) was performed using UPLC (Waters) and Sciex API4000. The lower limit of quantification in this assay was 0.005 μg ml^−1.

A further series has as its system PfATP4 Cpd 2. Briefly: [3H]-hypoxanthine incorporation assay, PfATP4 Cpd 2 resistant. Particulars: Plasmodium falciparum. It counts as cell-based. How it is done:
as §1

Another series relates to PfATP4 Cpd 3. Briefly: [3H]-hypoxanthine incorporation assay, PfATP4 Cpd 3 resistant. Format: cell-based. As to conditions: Plasmodium falciparum. The method, then: as §1
For the next series, the system named is Dd2 PI4K Cpd 1. Description: [3H]-hypoxanthine incorporation assay, Dd2 PI4K Cpd 1 resistant. It counts as cell-based. As to conditions: Plasmodium falciparum. The method, then: as §1
In a further series the test system is Pf 7G8. Briefly: microbe, parasite or virus in culture. It counts as cell-based. Particulars: Plasmodium falciparum. The source says:
(§2) tested in duplicate from two independent experiments using a SYBR-Green based assay2.
(§3) (1 picture or pasted object on this page, not shown here)

In a further series the test system is Pf DD2. Briefly: microbe, parasite or virus in culture. It counts as cell-based. Particulars: Plasmodium falciparum.
Excerpt: as §2, §3

In the next series the test system is Pf NF54. Briefly: microbe, parasite or virus in culture. As to conditions: Plasmodium falciparum. Format: cell-based.
Excerpt: as §2, §3

Another series concerns Pf W2. Briefly: microbe, parasite or virus in culture. It counts as cell-based. As to conditions: Plasmodium falciparum.
Excerpt: as §2, §3

A further series has as its system Pf K1. Briefly: microbe, parasite or virus in culture. As to conditions: Plasmodium falciparum. Format: cell-based.
Excerpt: as §2, §3

The subject of another series is Pf SB1. Description: microbe, parasite or virus in culture. As to conditions: Plasmodium falciparum. Format: cell-based.
Excerpt: as §2, §3

A further series deals with Dd2 bc-1 ELQ-300. Briefly: [3H]-hypoxanthine incorporation assay, Dd2 bc-1 ELQ-300 resistant. It counts as cell-based, Plasmodium falciparum. Particulars: Plasmodium falciparum, DD2. How it is done: as §1
The subject of a further series is Cpd 4 Unpublished Target. Briefly: [3H]-hypoxanthine incorporation assay, Cpd 4 Unpublished Target resistant. Particulars: Plasmodium falciparum. Format: cell-based. The method, then: as §1
The mark [3] stands for this setting: 10 mg kg-1, one compartment POPK model.
Setting [4] is: 30 mg kg-1, one compartment POPK model.

T1 sequence (Q12809 whole entry): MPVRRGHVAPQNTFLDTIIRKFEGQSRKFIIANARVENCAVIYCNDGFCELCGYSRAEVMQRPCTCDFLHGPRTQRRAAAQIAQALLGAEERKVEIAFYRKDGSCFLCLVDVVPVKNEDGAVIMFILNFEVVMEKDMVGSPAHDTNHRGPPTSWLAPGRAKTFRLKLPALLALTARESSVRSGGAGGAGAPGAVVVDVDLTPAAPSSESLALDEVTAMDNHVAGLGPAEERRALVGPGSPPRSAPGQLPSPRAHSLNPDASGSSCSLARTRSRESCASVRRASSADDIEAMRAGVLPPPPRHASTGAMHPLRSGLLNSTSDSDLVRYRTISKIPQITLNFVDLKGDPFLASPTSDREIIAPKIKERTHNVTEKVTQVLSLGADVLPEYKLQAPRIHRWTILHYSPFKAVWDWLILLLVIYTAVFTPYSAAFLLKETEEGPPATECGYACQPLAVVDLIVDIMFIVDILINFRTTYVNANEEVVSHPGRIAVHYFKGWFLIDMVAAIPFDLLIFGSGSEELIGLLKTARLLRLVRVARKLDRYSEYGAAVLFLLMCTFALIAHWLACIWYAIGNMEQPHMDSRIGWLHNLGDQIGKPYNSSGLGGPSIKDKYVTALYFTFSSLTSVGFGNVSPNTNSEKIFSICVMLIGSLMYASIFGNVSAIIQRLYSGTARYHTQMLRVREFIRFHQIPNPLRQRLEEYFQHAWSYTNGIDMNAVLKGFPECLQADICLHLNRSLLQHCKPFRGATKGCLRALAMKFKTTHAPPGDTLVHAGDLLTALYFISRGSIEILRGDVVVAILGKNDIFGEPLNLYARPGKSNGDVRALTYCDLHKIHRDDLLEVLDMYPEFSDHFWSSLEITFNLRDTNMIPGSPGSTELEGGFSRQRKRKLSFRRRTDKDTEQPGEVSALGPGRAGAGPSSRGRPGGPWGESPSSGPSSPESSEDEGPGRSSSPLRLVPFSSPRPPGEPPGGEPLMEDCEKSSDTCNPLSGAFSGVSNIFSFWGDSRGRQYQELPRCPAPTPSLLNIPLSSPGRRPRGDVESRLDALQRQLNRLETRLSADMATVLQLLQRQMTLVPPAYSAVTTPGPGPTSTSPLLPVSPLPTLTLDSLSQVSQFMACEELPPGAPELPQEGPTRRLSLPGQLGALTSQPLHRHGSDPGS

For orientation: IC50 means the point on the concentration scale where inhibition reaches its midpoint. Higher therefore signals weaker potency. One may read the solubility as how much of the substance goes into solution per volume. Read a low solubility as little dissolved substance. Consider `CCc1ccc(Nc2ncc(N3CCN(C)CC3)c(N3CCCC3)n2)cc1` [compound 1], for which the IC50 in series [1] is 150 nM; against hERG it was 3700 nM. Moreover, the solubility in “Solubility” worked out at 10 µM (≈ 3.67 µg/mL).

As usually defined, the CL/F is the apparent clearance, not corrected for the fraction that reaches the circulation. On to `Cc1nc(Nc2ncc(N3CCNC(C)C3)c(Nc3cc(C)n(C)n3)n2)cc(C2CC2)c1F.Cl.Cl` (stereo not shown) [compound 9, N2-(4-cyclopropyl-5-fluoro-6-methylpyridin-2-yl)-N4-(1,5-dimethyl-1H-pyrazol-3-yl)-5-(3-methylpiperazin-1-yl)pyrimidine-2,4-diamine dihydrochloride], for which the IC50 in the series with Dd2 turned out to be 6 nM; in [1], 14 nM; with Dd2 PfATP4 NITD609, 8.6 nM; in the series with Dd2 DHODH DSM265, 9.1 nM; in the series on PfATP4 Cpd 2 it was 11 nM; with PfATP4 Cpd 3, 11 nM. Further, the 50% inhibitory concentration (IC50) came to 10 nM in the series on Dd2 PI4K Cpd 1; 26.5 ± 5 nM in the series on Pf 7G8; 19.6 ± 7 nM with Pf DD2; 18.5 ± 5 nM in the series on Pf NF54; 28.1 ± 8 nM in the series with Pf W2; 33.8 ± 5 nM in the series on Pf K1. Further, the IC50 in the series with Pf SB1 is 25.6 ± 13 nM; with Dd2 bc-1 ELQ-300 it was 10 nM; in the series on Cpd 4 Unpublished Target it was 9.4 nM. The “improvement in Pf potency” value in [1] (compound 9 relative to compound 7) is given as over 10 fold. Further, in the series on Pf3D7^0087/N9 (PK-PD model for compound 9 alone), the “Kkill (maximum kill rate constant)” value was determined as 0.2 h⁻¹. Also, the EC50 in the series on Pf3D7^0087/N9 (Plasmodium falciparum, in Mus musculus, read-out: EC50 (blood concentration for half-maximal kill rate)) worked out at 309 nM. In addition, in the series with Pf3D7^0087/N9 (metabolite, Fixed), the Kkillm came to 0.2 h⁻¹. Also, the Ka in series [2] (setting [3]) worked out at 0.29 h⁻¹; in series [2] (setting [4]), 0.62 h⁻¹. Besides, the V/F in [2] (setting [4]) was 53 L/kg; in series [2] (compound 9, 10 mg kg-1, one compartment POPK model), 70 L/kg. The figures for the apparent clearance CL/F in [2] (setting [3]) and in [2] (setting [4]) were 122 mL/min/kg and 117 mL/min/kg, respectively. In addition, in series [2] (metabolite, Fixed), the CLm was determined as 1330 mL/min/kg. Moreover, the Ke0m in series [2] (metabolite, Fixed) was found to be 0.06 h⁻¹. Also, the Vcm in series [2] (metabolite, Fixed) worked out at 29 L/kg.
